Results as given in the CheMixHub viscosity set.
± gives the uncertainty stated by the source.

Assay: xn = mol fraction of the nth substance listed
Conditions: 101 kPa

C1COCO1 + O
viscosity [mPa·s]
Conditions	298.15 K	303.15 K	308.15 K	313.15 K	318.15 K	323.15 K
x1 = 0.01	0.754 ± 0.0049	–	0.6051 ± 0.0041	–	0.5251 ± 0.0036	–
x1 = 0.026	0.813 ± 0.0052	–	0.6561 ± 0.0044	–	0.5671 ± 0.0039	–
x1 = 0.03	–	0.8133 ± 0.042	–	0.6555 ± 0.035	–	0.5673 ± 0.031
x1 = 0.041	0.8741 ± 0.0056	–	0.7144 ± 0.0047	–	0.6071 ± 0.0041	–
x1 = 0.06	–	0.8766 ± 0.044	–	0.7152 ± 0.037	–	0.6053 ± 0.032
x1 = 0.09	–	0.9304 ± 0.046	–	0.7618 ± 0.039	–	0.6297 ± 0.034

CCC(O)CC + O
298.15 K
Conditions	viscosity [mPa·s]
x2 = 0.0181	4.598 ± 0.043
x2 = 0.0463	4.339 ± 0.042
x2 = 0.0845	4.074 ± 0.041
x2 = 0.1302	3.873 ± 0.042
x2 = 0.1754	3.748 ± 0.043
x2 = 0.1948	3.712 ± 0.044
x2 = 0.2262	3.67 ± 0.045
x2 = 0.2533	3.65 ± 0.046
x2 = 0.2782	3.641 ± 0.047
x2 = 0.3215	3.648 ± 0.05

CCCCCCn1cc[n+](C)c1.[Br-] + O
303.15 K
Conditions	viscosity [mPa·s]
x2 = 0.2196	695.5 ± 42
x2 = 0.2978	395.5 ± 19

CCN(CCO)CCO + O
viscosity [mPa·s]
Conditions	303.15 K	308.15 K	313.15 K	318.15 K	323.15 K
x1 = 0.0478	2.433 ± 0.12	2.084 ± 0.11	1.809 ± 0.11	1.585 ± 0.11	1.4 ± 0.11
x1 = 0.1002	5.975 ± 0.19	4.885 ± 0.16	4.051 ± 0.14	3.403 ± 0.13	2.897 ± 0.12
x1 = 0.1411	10.13 ± 0.27	8.044 ± 0.23	6.499 ± 0.19	5.322 ± 0.17	4.422 ± 0.15
x1 = 0.1933	16.59 ± 0.42	12.84 ± 0.33	10.12 ± 0.27	8.088 ± 0.22	6.604 ± 0.19
x1 = 0.2959	31.21 ± 0.72	23.36 ± 0.57	17.84 ± 0.43	13.84 ± 0.34	10.95 ± 0.28
x1 = 0.3944	43.07 ± 0.93	31.83 ± 0.73	24.05 ± 0.55	18.38 ± 0.42	14.39 ± 0.35
x1 = 0.495	51.1 ± 1	37.78 ± 0.82	28.28 ± 0.61	21.56 ± 0.46	16.84 ± 0.38
x1 = 0.5912	54.81 ± 1	40.53 ± 0.84	30.44 ± 0.62	23.28 ± 0.47	18.22 ± 0.38
x1 = 0.7064	55.22 ± 0.97	40.91 ± 0.78	31.03 ± 0.58	23.93 ± 0.44	18.76 ± 0.37
x1 = 0.8113	53.42 ± 0.87	39.97 ± 0.71	30.47 ± 0.53	23.66 ± 0.41	18.65 ± 0.34
x1 = 0.8934	51.39 ± 0.78	38.76 ± 0.65	29.74 ± 0.49	23.19 ± 0.38	18.44 ± 0.31

CN1CCCCCC1=O + O
298.16 K
Conditions	viscosity [mPa·s]
x2 = 0.0975	5.35 ± 0.04
x2 = 0.2528	6.17 ± 0.05
x2 = 0.4046	7.19 ± 0.06
x2 = 0.4996	7.85 ± 0.06
x2 = 0.577	8.2 ± 0.06
x2 = 0.63	8.28 ± 0.06
x2 = 0.7444	7.43 ± 0.06
x2 = 0.8512	5.1 ± 0.04
